Assay results taken from patent US8343696B2, “Colored curable composition, fluorine-containing dipyrromethene compound and tautomer thereof, and fluorine-containing dipyrromethene metal complex and tautomer thereof, and color filter using the same and method for producing the color filter” (FUJIFILM Corporation, priority 2008, dated 2013).

Legend:
Assay type in all cases: physicochemical
[1] = Light-fastness of coating film (color difference ΔEab before and after xenon lamp irradiation); conditions: xenon lamp 20,000 luxes for 10 hours (200,000 lux·h)
Procedure: A glass substrate having undercoat layer formed by applying the colored resin composition obtained in section 3 above was irradiated with a xenon lamp at an intensity of 20,000 luxes for 10 hours (equivalent to 200,000 lux·h), and the color difference ΔEab between before and after the irradiation was determined. The light-fastness was evaluated according to the following criteria. A smaller ΔEab value indicates better light-fastness.
(§1) A: ΔEab value was less than 6
(§2) B: ΔEab value was from 6 to 10
(§3) C: ΔEab value was more than 10

[2] = Storage stability of colored resist solution (precipitation after one month at room temperature); design: key: A: No precipitation was observed; B: Slight precipitation was observed; C: Precipitation was observed; conditions: negative-working colored resist solution, visual precipitation
Description: 9.4 g of the resist solution obtained in section 1 above and 0.35 g of the exemplary compound Ia-12 synthesized above (a compound represented by Formula (4): dipyrromethene complex compound) were mixed and dissolved, whereby a colored resist solution (a negative-working ultraviolet-sensitive colored curable composition) was obtained.
The colored resist solution was stored for one month at room temperature, and then degree of precipitation was visually observed. The storage stability was evaluated according to the following criteria.
A: No precipitation was observed
B: Slight precipitation was observed
C: Precipitation was observed

[3] = Heat resistance of coating film (color difference ΔEab before and after heating); conditions: 100° C. for 1 hour on hot plate
Procedure: A glass substrate having undercoat layer formed by applying the colored resin composition obtained in section 3 above was heat-treated at 100° C. for 1 hour using a hot plate, and the color difference (ΔEab) between before and after the heating was determined by using a […] MCPD-1000 (trade name, manufactured by Otsuka Electronics Co., Ltd.). The heat resistance was evaluated according to the following criteria. A smaller AEab value indicates better heat resistance.
as §1, §2, §3

[4] = Transmittance at 450 nm of the color filter; conditions: negative-working colored resist, 1.0 μm film; transmittance at λmax normalized to 2%
Procedure: The colored resist solution obtained in section 3 above was applied to an undercoat layer side of the glass substrate having an undercoat layer obtained in section 2 above by a spin coater such that a film thickness was 1.0 μm. Subsequently, the film was pre-baked at 100° C. for 120 sec, whereby a monochromatic color filter was obtained.
The transmission spectrum of the color filter obtained above was measured, and the transmittance at 450 nm was evaluated according to the following criteria. The transmittance of the color filter at 450 nm was evaluated by correcting (normalizing) the transmittance at the maximum absorption wavelength of the colorant included in the color filter to 2%. A larger transmittance indicates greater transmission of blue light, which indicates favorable magenta or violet color that can be used in a blue filter.
A: Transmittance at 450 nm was 90% or more
B: Transmittance at 450 nm was 80% or more but not more than 90%
C: Transmittance at 450 nm was not more than 80%

[5] = Absorption spectrum in ethyl acetate solution (spectrophotometer UV-2400PC)
Procedure: In consideration of film thickness, the molar absorption coefficient of the specific metal complex compounds-1, -2, -3 and -4 of the invention is preferably as high as possible, and 60,000 or higher is preferable. The maximum absorption wavelength (λmax) thereof is preferably from 520 nm to 580 nm, and more preferably from 530 nm to 570 nm, in order to improve color purity. The maximum absorption wavelength and the molar absorption coefficient are determined by using a spectrophotometer UV-2400PC (manufactured by Shimadzu Corporation).
The molar absorption coefficient (ε) of each of the obtained compounds was measured in an ethyl acetate solution using a spectrophotometer (trade name: UV-2400PC; manufactured by Shimadzu Corporation). The absorbance (Abs) at 450 nm was evaluated by normalizing the absorbance at a maximum absorption wavelength (λmax) to 1.0. […] The measurement results of the absorbance (Abs value), maximum absorption wavelength (λmax), and molar absorption coefficient (ε) are shown in Table 1.
By the method similar to the reaction scheme in Synthesis Example 1 above, the exemplary compounds (dipyrromethene metal complex compounds or tautomers thereof) shown in Table 1 were synthesized. The identification of the compounds and the measurement of the maximum absorption wavelength (λmax) and the molar absorption coefficient (ε) of the compounds were performed similarly to Synthesis Example 1 above.

Light-fastness [1] | Storage stability [2] | Heat resistance [3] | maximum absorption wavelength (λmax) [5] [nm] | molar absorption coefficient (ε) [5] | Abs value at 450 nm when normalized to Abs = 1.0 at λmax [5] | Structure (SMILES) | Transmittance at 450 nm [4]
A (ΔEab value was less than 6) | A | A (ΔEab value was less than 6) | 560 | 87,600 | 0.0112 | Cc1c(C(=O)OC2C(C(C)(C)C)CC(C)CC2C(C)(C)C)c(NC(=O)c2cccc(C(F)(F)F)c2)[n]([Zn][OH])c1C=C1N=C(NC(=O)C(C)(C)C)C(C#N)=C1c1ccccc1 (stereo not shown) [Ia-14] | A (Transmittance at 450 nm was 90% or more)
A (ΔEab value was less than 6) | A | A (ΔEab value was less than 6) | 559 | 91,400 | 0.0143 | CC1CC(C(C)(C)C)C(OC(=O)C2=C(c3ccccc3)C3=Cc4c(-c5ccccc5)c(C(=O)OC5C(C(C)(C)C)CC(C)CC5C(C)(C)C)c(NC(=O)c5cc(F)c(F)c(F)c5)[n]4[Zn-]([OH])[N+]3=C2NC(=O)c2cc(F)c(F)c(F)c2)C(C(C)(C)C)C1 (stereo not shown) [IIb-32] | A (Transmittance at 450 nm was 90% or more)
A (ΔEab value was less than 6) | A | A (ΔEab value was less than 6) | 563 | 97,100 | 0.0123 | CC1CC(C(C)(C)C)C(OC(=O)C2=C(c3ccccc3)C3=Cc4c(-c5ccccc5)c(C(=O)OC5C(C(C)(C)C)CC(C)CC5C(C)(C)C)c(NC(=O)c5ccc(C(F)(F)F)cc5)[n]4[Zn-]([OH])[N+]3=C2NC(=O)c2ccc(C(F)(F)F)cc2)C(C(C)(C)C)C1 (stereo not shown) [IIb-7] | A (Transmittance at 450 nm was 90% or more)
A (ΔEab value was less than 6) | A | A (ΔEab value was less than 6) | 553 | 109,400 | 0.0119 | CC1=C(C(=O)OC2C(C(C)(C)C)CC(C)CC2C(C)(C)C)C(NC(=O)c2c(F)c(F)c(O)c(F)c2F)=[N+]2C1=Cc1c(C)c(C(=O)OC3C(C(C)(C)C)CC(C)CC3C(C)(C)C)c(NC(=O)c3c(F)c(F)c(O)c(F)c3F)[n]1[Zn-]2[OH] (stereo not shown) [IIa-39] | A (Transmittance at 450 nm was 90% or more)
A (ΔEab value was less than 6) | A | A (ΔEab value was less than 6) | 558 | 89,100 | 0.0101 | CC(=O)NC1=[N+]2C(=Cc3c(-c4ccccc4)c(C(=O)OC4C(C(C)(C)C)CC(C)CC4C(C)(C)C)c(NC(=O)c4cc(F)c(F)c(F)c4)[n]3[Zn-]2[OH])C(c2ccccc2)=C1C#N (stereo not shown) [Ib-61] | A (Transmittance at 450 nm was 90% or more)
A (ΔEab value was less than 6) | A | A (ΔEab value was less than 6) | 562 | 87,100 | 0.0089 | CC1CC(C(C)(C)C)C(OC(=O)c2c(-c3ccccc3)c3[n](c2NC(=O)c2cccc(C(F)(F)F)c2)[Zn-]([OH])[N+]2=C(NC(=O)C(C)Sc4cc(C(=O)O)cc(C(=O)O)c4)C(C#N)=C(c4ccccc4)C2=C3)C(C(C)(C)C)C1 (stereo not shown) [Ib-15] | A (Transmittance at 450 nm was 90% or more)
A (ΔEab value was less than 6) | A | A (ΔEab value was less than 6) | 558 | 91,000 | 0.091 | Cc1c(C(=O)OC2C(C(C)(C)C)CC(C)CC2C(C)(C)C)c(NC(=O)c2cccc(C(F)(F)F)c2)[n]2c1C=C1C(c3ccccc3)=C(C#N)C(NC(=O)C(C)Sc3cc(C(=O)O)cc(C(=O)O)c3)=[N+]1[Zn-]2[OH] (stereo not shown) [Ia-15] | A (Transmittance at 450 nm was 90% or more)
